Assay results: US11311512B2, “Lymph directing prodrugs” (priority 2014, dated 2022)
Values joined by “and” are separate entries in the source; they are usually repeats but may differ in a detail not shown here. Equal values may be shown once. Read-outs that look alike come from different tables or passages of the source.

Legend:
[1] = Experimental: Lipid formulations containing the compound of interest were then administered to the animals, the lymph collected and drug concentrations in the lymph subsequently quantified.
Lipid-based formulations of the compounds of the invention or control compounds were prepared as previously described (Trevaskis, N. L. et al., Pharmaceutical Research, 2005, 22(11), 1863-1870). Briefly, approximately 2 mg of the compound (1 mg in the case of Compound 35 and Compound 1), 40 mg oleic acid and 25 mg Tween 80 were mixed in a glass vial until equilibrated (gentle heat (below 50° C.) may be applied for a short period).
[…] This was to eliminate the potential for the relatively high and variable levels of endogenous testosterone in male rats interfering with the quantification of exogenously dosed testosterone. Rats (240-320 g) were maintained on a standard diet and fasted overnight with free access to water prior to experiments. Anaesthetised rats were placed on a heated pad at 37° C. and cannulas were inserted into the duodenum (for formulation administration and rehydration), mesenteric lymph duct (for lymph collection) and carotid artery (for blood collection) as previously described (Edwards et al. Advanced Drug Delivery Reviews 2001, 50(1), 45-60). Post-surgery, rats were re-hydrated for 0.5 h via intraduodenal infusion of normal saline at 2.8 mL/h. The lipid formulations were infused into the duodenum at 2.8 mL/h for 2 h, after which the infusion was changed to 2.8 mL/h normal saline for the remainder of the experiment. Lymph was continuously collected for 6 to 8 h into pre-weighed Eppendorf tubes containing 10 μL of 1,000 IU/mL heparin. The collection tubes were changed hourly and lymph flow was measured gravimetrically. Aliquots of hourly lymph samples were stored at −80° C. prior to assay.
Drug concentration in lymph is expressed as total drug and includes free drug and drug associated with different glycerides. This is assayed by hydrolysis of lymph (to liberate drug from any re-esterified glycerides) prior to assessment of free drug.
FIG. 1 illustrates the cumulative lymphatic transport of total testosterone related derivatives (% of administered dose) versus time in anaesthetised mesenteric lymph duct cannulated female SD rats following intraduodenal infusion of formulations from 0 to 2 h. Each Formulation contained 2 mg of the exemplified compound or the control, testosterone undecanoate (TU), dispersed in 40 mg oleic acid, 25 mg Tween 80 and 5.6 ml PBS.

[2] = Pharmacokinetic study in rats, testosterone plasma concentrations after oral gavage; conditions: testosterone in plasma, oral gavage; for Tmax / AUC0-24 h / Cmax: conscious carotid artery cannulated SD female rats; for AUC0-24 h / Cmax: normalized to 2 mg/kg equivalent testosterone dose
Experimental: In order to assess the oral bioavailability of the compounds of the invention, pharmacokinetic studies were conducted in rats and dogs. […] The rats were then allowed to regain consciousness and fasted overnight prior to the commencement of experiments with free access to water. […] The oral formulation of Compound 2 contained 3 mg of the compound, 20 mg oleic acid and 12.5 mg Tween 80 dispersed in 1 mL PBS. Blood samples were collected from the carotid artery cannula from 5 min prior to administration up to 24 h post-dosing and centrifuged at 5000 rpm for 5 min to separate plasma. […] Plasma samples were stored at −80° C. prior to assay by HPLC-MS-MS. In this case samples were assayed for free drug (i.e. non-glyceride associated drug) and were not hydrolysed prior to assay (as was the case with the lymph samples).
FIG. 12 illustrates dose-normalized testosterone plasma concentrations following oral gavage of formulations to conscious, carotid artery cannulated female SD rats. Formulations contained 1 mg of TU, or 2 mg of compounds of the invention containing testosterone dispersed in 40 mg oleic acid, 25 mg Tween 80 and 2 ml PBS. Doses are normalized to a 2 mg/kg equivalent dose of testosterone. Data are shown as mean±SEM for all groups (n=4 or 3 for each group). The embedded figure is the plot of the dose-normalized plasma AUC0-24h (nmol×h/L) of testosterone in the form of a bar graph.

[3] = anaesthetised, mesenteric lymph-duct cannulated male SD rats, intraduodenal infusion, MET, ATV, ASP, SER or CEL derivatives
[4] = anaesthetised, mesenteric lymph-duct cannulated male SD rats, intraduodenal infusion 0-2 h, cumulative over 8 h
[5] = lymphatic transport of total MPA derivatives, male SD rats, intraduodenal infusion
[6] = male, Sprague-Dawley, rat, in vivo

1-(1,3-Bis(palmitoyloxy)propan-2-yl) 10-(1-(isopropylamino)-3-(4-(2-methoxyethyl)phen-oxy)propan-2-yl) decanedioate [Compound 3]
Transport of total drug derivatives in lymph (% of dose) [1, 3]: 14.2 ± 1.5 % of dose
Increase fold (compared with parent drug group) ([1]; lymphatic transport of total drug derivatives, male SD rats, intraduodenal infusion): 591.7 fold

CCCCCCCCCCCCCCCC(=O)OCC(COC(=O)CCCCCCCCCCCCCCC)OC(=O)C(C)CCCOC(=O)CCC(C)=CCc1c(O)c2c(c(C)c1OC)COC2=O (mixture of isomers) [Compound 36]
Transport of total MPA derivatives in lymph (% of dose) [1, 4]: 9.1 % of dose and 9.1 ± 1.4 % of dose
Fold increase (compared with MPA dosed group) [1, 5]: 54.6 fold

CCCCCCCCCCCCCCCC(=O)OCC(COC(=O)CCCCCCCCCCCCCCC)OC(=O)C(C)CCCCOC(=O)CCC(C)=CCc1c(O)c2c(c(C)c1OC)COC2=O (mixture of isomers) [Compound 37]
Transport of total MPA derivatives in lymph (% of dose) [1, 4]: 12.6 % of dose and 12.6 ± 1.7 % of dose
Fold increase (compared with MPA dosed group) [1, 5]: 75.0 fold

CCCCCCCCCCCCCCCC(=O)OCC(COC(=O)CCCCCCCCCCCCCCC)OC(=O)CC(C)CCOC(=O)CCC(C)=CCc1c(O)c2c(c(C)c1OC)COC2=O (mixture of isomers) [Compound 38]
Transport of total MPA derivatives in lymph (% of dose) [1, 4]: 12.1 % of dose and 12.1 ± 1.0 % of dose
Fold increase (compared with MPA dosed group) [1, 5]: 72.3 fold

CCCCCCCCCCCCCCCC(=O)OCC(COC(=O)CCCCCCCCCCCCCCC)OC(=O)CC(C)CCCCCCCCCCCCOC(=O)CCC(C)=CCc1c(O)c2c(c(C)c1OC)COC2=O (mixture of isomers) [Compound 39]
Transport of total MPA derivatives in lymph (% of dose) [1, 4]: 28.4 % of dose and 28.4 ± 3.2 % of dose
Fold increase (compared with MPA dosed group) [1, 5]: 167.0 fold

CC(=O)Oc1ccccc1C(=O)O [ASP, aspirin, reference compound]
Increase fold (compared with parent drug group) [1, 6]: 1.0 fold
Transport of total drug derivatives in lymph (% of dose) [1, 6]: 1.3 ± 0.2 % of dose

CCCCCCCCCCCCCCCC(=O)OCC(COC(=O)CCCCCCCCCCCCCCC)OC(=O)CCCCCCCCC(=O)Oc1cc(C)cc(C)c1C(C)(C)CC(=O)NS(=O)(=O)c1ccc(-n2nc(C(F)(F)F)cc2-c2ccc(C)cc2)cc1 [Compound 5]
Transport of total drug derivatives in lymph (% of dose) [1, 3]: 15.7 ± 1.3 % of dose

CCCCCCCCCCCCCCCC(=O)OCC(COC(=O)CCCCCCCCCCCCCCC)OC(=O)CCCC(=O)O[C@H]1CC[C@H]2[C@@H]3CCC4=CC(=O)CC[C@]4(C)[C@H]3CC[C@]12C [Compound 10]
AUC0-24 h fold increase compared with TU group ([2]; SD female rats, dose-normalized): 2.8 fold and 2.9 fold
Tmax [2]: 1.0 ± 0.0 h and 1.1 ± 0.1 h
AUC0-24 h [2]: 19.1 ± 2.4 nM·h and 19.6 ± 0.8 nM·h
Cmax [2]: 0.019 µM and 0.0137 µM
Transport of total TST derivatives in lymph (% of dose) ([1]; anaesthetised, mesenteric lymph-duct cannulated female SD rats, intraduodenal infusion 0-2 h, cumulative over 8 h): 14.5 % of dose
Fold increase (compared with control group dosed with TU) ([1]; lymphatic transport of total TST derivatives, female SD rats, intraduodenal infusion): 7.7 fold

CCCCCCCCCCCCCCCC(=O)OCC(COC(=O)CCCCCCCCCCCCCCC)OC(=O)CCCCC(=O)Oc1cc(C)cc(C)c1C(C)(C)CC(=O)O[C@H]1CC[C@H]2[C@@H]3CCC4=CC(=O)CC[C@]4(C)[C@H]3CC[C@]12C [Compound 22, 1,3-Bis(palmitoyloxy)propan-2-yl (2-(4-(((8R,9S,10R,13S,14S,17S)-10,13-dimethyl-3-oxo-2,3,6,7,8,9,10,11,12,13-14,15,16,17-tetradecahydro-1H-cyclopenta[a]phenanthren-17-yl)oxy)-2-methyl-4-oxobutan-2-yl)-3,5-dimethylphenyl) adipate]
Tmax [2]: 1.0 ± 0.0 h
AUC0-24 h [2]: 269.1 ± 58.8 nM·h
Cmax [2]: 0.171 ± 0.027 µM

CCCCCCCCCCCCCCCC(=O)OCC(COC(=O)CCCCCCCCCCCCCCC)OC(=O)CCCCCCCCC(=O)Oc1cc(C)cc(C)c1C(C)(C)CC(=O)O[C@H]1CC[C@H]2[C@@H]3CCC4=CC(=O)CC[C@]4(C)[C@H]3CC[C@]12C [Compound 26]
Tmax [2]: 1.1 ± 0.1 h
AUC0-24 h [2]: 617.3 ± 177.8 nM·h
Cmax [2]: 0.487 ± 0.134 µM

CCCCCCCCCCCCCCCC(=O)OCC(COC(=O)CCCCCCCCCCCCCCC)OC(=O)CCCCCCCOC(=O)CC/C(C)=C/Cc1c(O)c2c(c(C)c1OC)COC2=O [Compound 33]
Transport of total MPA derivatives in lymph (% of dose) [1, 4]: 10.5 ± 0.7 % of dose
Fold increase (compared with MPA dosed group) [1, 5]: 62.8 fold

CCCCCCCCCCCCCCCC(=O)OCC(COC(=O)CCCCCCCCCCCCCCC)OC(=O)CCCCCCCCCCCCCCOC(=O)CC/C(C)=C/Cc1c(O)c2c(c(C)c1OC)COC2=O [Compound 34]
Transport of total MPA derivatives in lymph (% of dose) [1, 4]: 22.1 % of dose and 22.1 ± 3.5 % of dose
Transport of total MPA derivatives in lymph (% of dose) ([1]; anaesthetised, mesenteric lymph-duct cannulated male SD rats, intraduodenal infusion 0-2 h, cumulative over 8 h, listed as compound 34): 22.1 % of dose
Fold increase (compared with MPA dosed group) [1, 5]: 132.0 fold

CCCCCCCCCCCCCCCC(=O)OCC(COC(=O)CCCCCCCCCCCCCCC)OC(=O)CCCCCCCCCCCCCCCCCCCCOC(=O)CC/C(C)=C/Cc1c(O)c2c(c(C)c1OC)COC2=O [Compound 35]
Transport of total MPA derivatives in lymph (% of dose) [1, 4]: 9.7 ± 1.0 % of dose
Fold increase (compared with MPA dosed group) [1, 5]: 58.1 fold

CCCCCCCCCCCCCCCC(=O)OCC(COC(=O)CCCCCCCCCCCCCCC)OC(=O)CCCCSC(=O)CC/C(C)=C/Cc1c(O)c2c(c(C)c1OC)COC2=O [Compound 40]
Transport of total MPA derivatives in lymph (% of dose) [1, 4]: 10.2 ± 3.0 % of dose
Fold increase (compared with MPA dosed group) [1, 5]: 61.1 fold

COCCc1ccc(OCC(O)CNC(C)C)cc1 (stereo not shown) [MET, metoprolol, reference compound]
Increase fold (compared with parent drug group) [1, 6]: 1.0 fold
Transport of total drug derivatives in lymph (% of dose) [1, 6]: 0.02 ± 0.01 % of dose

COc1c(C)c2c(c(O)c1C/C=C(\C)CCC(=O)O)C(=O)OC2 [MPA, mycophenolic acid, reference compound]
Fold increase (compared with MPA dosed group) [1, 6]: 1.0 fold
Transport of total MPA derivatives in lymph (% of dose) [1, 6]: 0.17 ± 0.05 % of dose

CN[C@H]1CC[C@@H](c2ccc(Cl)c(Cl)c2)c2ccccc21 [SER, sertraline, reference compound]
Increase fold (compared with parent drug group) [1, 6]: 1.0 fold
Transport of total drug derivatives in lymph (% of dose) [1, 6]: 0.05 % of dose
